Measurements published in the METLIN SMRT retention time set (Domingo-Almenara et al. 2019).

Assay: gradient 5% acetonitrile 3 min, to 50% in 2 min, to 85% in 15 min, held 3 min, 100 µL/min
Conditions: column: Zorbax Extend-C18 2.1 x 50 mm; eluents: water / acetonitrile, 0.1% formic acid
How it was run: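 In both positive and negative ionization mode, a quadrupole time-of-flight mass spectrometer coupled to HPLC analyzed pure standards run in mixtures of ~100 molecules. The Zorbax Extend-C18 column (2.1 × 50 mm, 1.8 μm) was operated at 100 μL/min with water and acetonitrile, each containing 0.1% formic acid. The dead volume was 40 μL and the dwell volume 900 μL. Retention time came from adduct peaks that were computationally picked and individually inspected by hand.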

Row | Structure (SMILES) | RP-LC retention time [s]
1 | CCS(=O)(=O)N1CC(=O)N(c2ccc(F)cc2)C(C)(C(=O)NC2CCCCCCC2)C1 (centres undefined) | 938
2 | CC(NC(=O)Cn1c(C(F)(F)F)nc2cc3c(cc21)OCCO3)c1ccc2c(c1)OCCCO2 (centres undefined) | 855
3 | O=C(NCCc1ccc(Cl)cc1)c1nnc(-c2ccc(S(=O)(=O)N3CCCC3)cc2)o1 | 1010
4 | COc1ccccc1C(=O)N1CCC2(CC1)NC(=O)c1cc(F)ccc1N2C | 752
5 | Cn1c(=O)oc2cc(-c3noc(-c4ccccc4)n3)ccc21 | 1010
6 | CCS(=O)(=O)Nc1cccc(-c2nc3cccnc3s2)c1 | 720
7 | Cc1ccc(-c2nnc(-c3cccc(S(=O)(=O)N4CCC(C(=O)O)CC4)c3)o2)cc1 | 860
8 | N#Cc1cccc(Cn2cc(S(=O)(=O)N3CCCC3)ccc2=O)c1 | 764
9 | O=C(c1cccn1Cc1noc(-c2ccc(Cl)cc2)n1)N1CCCC1 | 1020
10 | O=C(NCc1ccco1)c1ncoc1-c1ccccc1C(=O)N1CCCC1 | 711
11 | O=C(CSc1ccc(-n2cccn2)nn1)NCc1ccco1 | 653
12 | O=C(CN1C(=O)c2ccccc2C1=O)NCC1(c2cccs2)CCCCC1 | 936
13 | Cc1ccc2nc(N3CCNCC3)c(-c3noc(-c4ccccc4)n3)cc2c1 | 770
14 | Cc1csc(-c2cc(S(=O)(=O)NCCCN3CCC(C)CC3)c(C)s2)n1 | 675
15 | CCn1cnc(S(=O)(=O)N2CCCC(C(=O)N3CCN(c4ccc(F)cc4)CC3)C2)c1 (centres undefined) | 752
16 | COc1ccc(NC(=O)N2CCCN(C3CCN(CC4CC4)C3=O)CC2)cc1Cl (centres undefined) | 569
17 | Cc1cc(Nc2ccccc2)nc(N2CCN(C(=O)Nc3ccc(F)cc3)CC2)n1 | 696
18 | CC(C)NC(=O)C1CCN(c2nc3ccc(-c4ccsc4)nc3s2)CC1 | 796
19 | O=C(Cc1cccs1)N1CCc2nn(CC3CC3)c(=O)n2CC1 | 676
20 | O=C(Nc1ccc(Nc2ccncc2)cc1)c1ccc([N+](=O)[O-])cc1 | 1250

Row | Structure (SMILES) | RP-LC retention time [s]
21 | CCOC(=O)c1nn(-c2ccccc2)cc1O | 830
22 | NCc1nnnn1-c1ccc(Cl)cc1 | 522
23 | Cc1ccc(CNC(=O)C2CCCN(c3cnc4nccnc4c3)C2)o1 (centres undefined) | 772
24 | CCN1CCN(C(=O)C2CCN(S(=O)(=O)c3c(C)nn(-c4ccc(Cl)cc4)c3C)CC2)CC1 | 670
25 | O=C(Nc1ccc(F)c(F)c1)C1CCN(C(=O)C2Sc3ccccc3NC2=O)CC1 (centres undefined) | 810
26 | Cn1nc(-c2ccccc2)cc1N | 599
27 | O=C(COc1ccc2ccccc2c1)NCC(O)c1ccc(C(F)(F)F)cc1 (centres undefined) | 898
28 | CC(C)CN(Cc1cccnc1)C1CN(C(=O)NCc2ccccc2)C1 | 627
29 | O=S(c1cc(Cl)cc(Cl)c1O)c1cc(Cl)cc(Cl)c1O | 1160
30 | Cc1cnc(-c2ccccc2)n1CCNS(=O)(=O)N(C)C | 572
31 | Cn1c2ccccc2c2cnn(CC(=O)N3CCN(c4ccccn4)CC3)c(=O)c21 | 943
32 | O=C(c1ccc2ccnc(N3CCN(c4ccc(F)cc4)CC3)c2c1)N1CCCCCC1 | 816
33 | COC(=O)c1c(C)[nH]c(C(=O)N2CCC(CC(=O)NCCC(C)C)CC2)c1C | 716
34 | O=C(C1=CN(c2cccc(Br)c2)c2ccccc2S1(=O)=O)N1CCOCC1 | 788
35 | O=C(Nc1ccc2c(c1)OCO2)C(=O)c1cn(CC(=O)N2CCCCC2)c2ccccc12 | 1000
36 | CN(Cc1ccccc1)C(=O)c1ccc2c(c1)N(CC(=O)N1CCCC1)C(=O)CO2 | 723
37 | Cc1c(C(=O)NC(C)C)cnn1-c1ccc(-c2nc(C(C)C)no2)cn1 | 931
38 | O=C1NC2(CCN(C(=O)c3ccc(F)cc3)CC2)Nc2cc(Cl)ccc21 | 742
39 | CCOCCCNC(=O)C1CCN(c2nccnc2Oc2cccc(C)c2)CC1 | 861
40 | COC(=O)c1cc(S(=O)(=O)N2CCCC2C(=O)Nc2nc(C)cs2)cn1C (centres undefined) | 791

Row | Structure (SMILES) | RP-LC retention time [s]
41 | CCCN(CCC)C(=O)Cn1c(CO)nc2ccccc21 | 623
42 | O=C(CCC(=O)N1CCNc2ccccc2C1)N1CCOCC1 | 585
43 | CC(C)NC(=O)c1ccc(OCC2CCCN2C(=O)c2ccc(C#N)cc2)cc1 (centres undefined) | 734
44 | Cc1nc(NC(=O)C2CCCN(c3ccc(-n4cccn4)nn3)C2)sc1C (centres undefined) | 699
45 | O=C(Nc1ccccc1C(F)(F)F)N1CC(n2cnnc2-c2ccccc2)C1 | 710
46 | Cn1nc2n(c1=O)CCN(C(=O)c1cscn1)CC2 | 560
47 | O=C(O)C1CCCCC1C(=O)NCCc1csc(-c2cccnc2)n1 (centres undefined) | 593
48 | O=C(Cn1cnc2c(nc3n2CCCCC3)c1=O)N1CCN(Cc2ccc3c(c2)OCO3)CC1 | 588
49 | CS(=O)(=O)N1CCCC1C(=O)Nc1ccccc1 (centres undefined) | 690
50 | O=C([C@@H]1C[C@H](F)CN1S(=O)(=O)Cc1cccc(Cl)c1)N1CCc2ccccc2C1 | 1000
51 | O=C(C1CCCN(c2nc3cccnc3s2)C1)N1CCN(c2ccccc2)CC1 (centres undefined) | 844
52 | CCOC(=O)CSc1nnc(-c2nnc(SCC(=O)OCC)n2CC)n1CC | 758
53 | CCCNC(C)C(=O)Nc1c(C)csc1C(=O)OC (centres undefined) | 652
54 | Cc1ccccc1CNC(=O)C1CCN(S(C)(=O)=O)c2ccccc2O1 (centres undefined) | 841
55 | O=c1c(-c2ccccc2)c(N2CCN(c3ccccn3)CC2)c1=O | 620
56 | Cc1cc2n(n1)CCCN2C(=O)CCC(=O)N1CCC(Cc2ccccc2)CC1 | 818
57 | NC(=O)C1CCN(C(=O)CCc2nnc3c4cc(-c5ccc(Cl)cc5)nn4ccn23)CC1 | 671
58 | COC(=O)c1ccc(C(=O)NCC2CCN(S(=O)(=O)C3CC3)CC2)cc1 | 732

Second part, the compound after the results:

Row | RP-LC retention time [s] | Structure (SMILES)
59 | 733 | COc1ccc(-n2ccn3cc(-c4ccc5c(c4)OCO5)nc3c2=O)cc1OC
60 | 1100 | Cc1cc(C)n(-c2ccc(C(=O)NCc3ccc(C(C)C)cc3)cn2)n1
61 | 645 | COc1ccc(CC(=O)N2CCN(c3nc4ccncc4n(C)c3=O)CC2)c(Cl)c1
62 | 1190 | CCOc1nc2ccccc2nc1N1CCCC(C(=O)N2CCN(c3ccc(OC)cc3)CC2)C1 (centres undefined)
63 | 828 | COc1ccc(-c2cn3ccn(-c4ccc(Cl)cc4)c(=O)c3n2)cc1
64 | 793 | COc1ccc(-c2ccc(SCC(=O)Nc3cccc([N+](=O)[O-])c3)nn2)cc1OC
65 | 777 | Cc1ccc(NC(=O)CN2CCC(c3nc(-c4cccs4)no3)CC2)c(Cl)c1
66 | 855 | COc1cccc(CC(=O)Nc2ccc3c(c2)Sc2ncccc2C(=O)N3C(C)C)c1
67 | 595 | CCN(CC)CCCC(C)Nc1nc(/C=C/c2cc(OC)c(OC)cc2Cl)nc2cc(Cl)ccc12 (centres undefined)
68 | 679 | CCN(CC)C(=O)[C@@H]1[C@H](c2cc(OC)c(OC)c(OC)c2)c2cc3c(cc2[C@H](O)[C@H]1CO)OCO3
69 | 919 | CCc1noc(NC(C)=O)c1-c1ccc(C)c(S(=O)(=O)Nc2ccc(C)cc2Br)c1
70 | 1200 | Cc1cccc(-c2noc(Cn3ncn4nc(-c5ccccc5Cl)cc4c3=O)n2)c1
71 | 772 | COc1ccc(OC)c(NC(=O)Cc2csc3nc(-c4ccc(C)c(C)c4)cn23)c1
72 | 1070 | CCc1ccc(OCC(=O)Nc2nnc(SCc3nnc(-c4ccccc4C)o3)s2)cc1
73 | 853 | COc1ccc(-c2nc(C3CC(=O)N(c4ccc(OC)c(OC)c4)C3)no2)cc1F (centres undefined)
74 | 661 | COc1ccc(S(=O)(=O)Nc2ccc(-c3cn4ccc(C)nc4n3)cc2)cc1C

Row | RP-LC retention time [s] | Structure (SMILES)
75 | 854 | COc1cc(OC)c(NC(=O)NC2CCN(c3ccc(F)cc3)C2=O)cc1Cl (centres undefined)
76 | 845 | COc1ccc(CNC(=O)c2nnc(-c3ccc(S(=O)(=O)N(C)C)cc3)o2)cc1
77 | 605 | COc1ccc(CNC(=O)c2cc(-c3ccncc3)cn2C)cc1OC
78 | 913 | COc1ccccc1-c1nnc(-c2ccc(Cl)c(S(=O)(=O)N(C)C)c2)o1
79 | 848 | Cc1cccnc1NC(=O)c1c(O)c2cc(F)cc3c2n(c1=O)C(C)CC3 (centres undefined)
80 | 605 | COc1ccc(OC)c(NC(=O)C2c3cc(OC)c(OC)cc3C(=O)N(C)C2c2cccnc2)c1 (centres undefined)
81 | 1040 | CCOc1ccc(N2C(=O)C3N=NN(Cc4nc(-c5cccc(C)c5)no4)C3C2=O)cc1 (centres undefined)
82 | 714 | Cc1cccc(NC(=O)Nc2cccc(-c3ccc(N4CCOCC4)nn3)c2)c1
83 | 709 | CCOC(=O)c1cnc2nc(C)ccc2c1Nc1cc(OC)ccc1OC
84 | 619 | CC(C)n1cnc2cc(CNC(=O)c3ccc(F)cc3Cl)ccc21
85 | 973 | Cc1ccc(NC(=O)Cn2nc(C(=O)N3CCCCC3)c3ccccc32)c(Br)c1
86 | 964 | CN(CCc1noc(COc2ccccc2)n1)C(=O)Nc1cccc(Br)c1
87 | 845 | CCOC(=O)c1c(C)c(CCC(=O)NC(C)c2ccc3c(c2)OCCO3)n(C)c1C (centres undefined)
88 | 954 | COc1ccccc1Nc1c(-c2ccc(C)cc2)nc2cnccn12
89 | 988 | O=C(Cc1ccc(F)cc1)Nc1nc(-c2ccccc2)cs1
